# Where two headings read alike, the source gives them in different places. Non-standard residues stand in square brackets, D forms with d. Residues, ends and D or L forms follow the SMILES beside them. dDip = N[C@@H](C(=O)O)C(c1ccccc1)c1ccccc1; 2Nal = N[C@@H](Cc1ccc2ccccc2c1)C(=O)O; d2Nal = N[C@H](Cc1ccc2ccccc2c1)C(=O)O
# Columns and labels:
# [1] = system: S. aureus ATCC 29213; settings: ATCC 29213
# [2] = system: Methicillin-resistant Staphylococcus aureus MRSA (ATCC BAA-1556); settings: ATCC BAA-1556
# [3] = system: Pseudomonas aeruginosa (ATCC 27883)
# [4] = system: Escherichia coli (ATCC 25922); settings: ATCC 25922
# [5] = in vitro; settings: human, fresh human red blood cells (washed), pH 7.4
MIC S. aureus ATCC 29213 [1] [µg/mL],MIC MRSA ATCC BAA-1556 [2] [µg/mL],MIC E. coli ATCC 25922 [4] [µg/mL],HC50 at 0.5 h [5] [µg/mL],MIC P. aeruginosa ATCC 27883 ([3]; ATCC 27883) [µg/mL],Structure (SMILES),MIC P. aeruginosa ATCC 27883 ([3]; P. aeruginosa ATCC 27883) [µg/mL]
3.1,6.2,6.2,470,12.5,N=C(N)NCCC[C@H](NC(=O)[C@H](CCCNC(=N)N)NC(=O)[C@@H](N)CCCNC(=N)N)C(=O)N[C@@H](CCCNC(=N)N)C(=O)N[C@@H](C(=O)N[C@@H](C(=O)N[C@@H](C(=O)O)C(c1ccccc1)c1ccccc1)C(c1ccccc1)c1ccccc1)C(c1ccccc1)c1ccccc1 [IFX-072-1] (H-RRRR[dDip][dDip][dDip]-OH),
3.1,3.1,16,190,16,"N=C(N)NCCC[C@H]1NC(=O)[C@H](Cc2ccc3ccccc3c2)NC(=O)[C@H](Cc2ccc3ccccc3c2)NC(=O)[C@@H](Cc2c[nH]c3ccccc23)NC(=O)[C@@H](CCCNC(=N)N)NC(=O)[C@@H](CCCNC(=N)N)NC(=O)[C@@H](CCCNC(=N)N)NC(=O)[C@@H](CCCNC(=N)N)NC1=O [IFX-123, c[arg-arg-arg-arg-arg-trp-NaI-NaI]] (cyclo([2Nal][2Nal][dR][dR][dR][dR][dR][dW]))",
3.1,3.1,12.5,200,25,"N=C(N)NCCC[C@@H]1NC(=O)[C@H](CCCNC(=N)N)NC(=O)[C@H](CCCNC(=N)N)NC(=O)[C@H](CCCNC(=N)N)NC(=O)[C@@H](Cc2ccc3ccccc3c2)NC(=O)[C@H](Cc2ccc3ccccc3c2)NC(=O)[C@H](Cc2c[nH]c3ccccc23)NC1=O [IFX-102, c[Arg-Arg-Arg-Arg-Trp-NaI-naI]] (cyclo([2Nal][d2Nal]RRRRW))",
3.1,3.1,25,330,25,N=C(N)NCCC[C@@H](N)C(=O)N[C@@H](CCCNC(=N)N)C(=O)N[C@H](CCCNC(=N)N)C(=O)N[C@@H](CCCNC(=N)N)C(=O)N[C@@H](Cc1c[nH]c2ccccc12)C(=O)N[C@H](Cc1ccc2ccccc2c1)C(=O)N[C@H](Cc1ccc2ccccc2c1)C(=O)O [IFX-110-1] (H-[dR]R[dR]RW[d2Nal][d2Nal]-OH),
3.1,3.1,32,220,32,"N=C(N)NCCC[C@H]1NC(=O)[C@H](Cc2ccc3ccccc3c2)NC(=O)[C@H](Cc2ccc3ccccc3c2)NC(=O)[C@@H](Cc2c[nH]c3ccccc23)NC(=O)[C@@H](CCCNC(=N)N)NC(=O)[C@@H](CCCNC(=N)N)NC(=O)[C@@H](CCCNC(=N)N)NC1=O [IFX-122, c[arg-arg-arg-arg-trp-NaI-NaI]] (cyclo([2Nal][2Nal][dR][dR][dR][dR][dW]))",
6.2,12.5,128,690,64,"NCCCC[C@@H]1NC(=O)[C@H](CCCCN)NC(=O)[C@H](CCCCN)NC(=O)[C@H](Cc2ccc3ccccc3c2)NC(=O)[C@H](Cc2ccc3ccccc3c2)NC(=O)[C@H](Cc2c[nH]c3ccccc23)NC(=O)[C@H](CCCCN)NC(=O)[C@H](CCCCN)NC1=O [IFX-131, c[Lys-Lys-Lys-Lys-Lys-Trp-NaI-NaI]] (cyclo([2Nal][2Nal]KKKKKW))",
3.1,3.1,6.2,390,12.5,N=C(N)NCCC[C@@H](N)C(=O)N[C@H](CCCNC(=N)N)C(=O)N[C@H](CCCNC(=N)N)C(=O)N[C@H](CCCNC(=N)N)C(=O)N[C@@H](C(=O)N[C@@H](C(=O)N[C@@H](C(=O)O)C(c1ccccc1)c1ccccc1)C(c1ccccc1)c1ccccc1)C(c1ccccc1)c1ccccc1 [IFX-067-1] (H-[dR][dR][dR][dR][dDip][dDip][dDip]-OH),
6.2,6.2,64,590,64,"NCCCC[C@@H]1NC(=O)[C@@H](CCCCN)NC(=O)[C@H](CCCCN)NC(=O)[C@@H](CCCCN)NC(=O)[C@@H](Cc2ccc3ccccc3c2)NC(=O)[C@@H](Cc2ccc3ccccc3c2)NC(=O)[C@H](Cc2c[nH]c3ccccc23)NC1=O [IFX-128, c[lys-Lys-lys-Lys-Trp-naI-naI]] (cyclo(KW[d2Nal][d2Nal][dK]K[dK]))",
6.2,6.2,64,540,128,"NCCCC[C@@H]1NC(=O)[C@H](CCCCN)NC(=O)[C@H](CCCCN)NC(=O)[C@@H](Cc2ccc3ccccc3c2)NC(=O)[C@@H](Cc2ccc3ccccc3c2)NC(=O)[C@H](Cc2c[nH]c3ccccc23)NC(=O)[C@H](CCCCN)NC1=O [IFX-127, c[Lys-Lys-Lys-Lys-Trp-naI-naI]] (cyclo(KKKKW[d2Nal][d2Nal]))",
1.5,1.5,12.5,350,6.2,"N=C(N)NCCC[C@@H]1NC(=O)[C@H](CCCNC(=N)N)NC(=O)[C@H](CCCNC(=N)N)NC(=O)[C@@H](CCCNC(=N)N)NC(=O)[C@H](Cc2ccc3ccccc3c2)NC(=O)[C@H](Cc2ccc3ccccc3c2)NC(=O)[C@H](Cc2c[nH]c3ccccc23)NC1=O [IFX-108, c[arg-Arg-Arg-Arg-Trp-NaI-NaI]] (cyclo([2Nal][2Nal][dR]RRRW))",
6.2,3.1,12.5,370,25,N=C(N)NCCC[C@H](NC(=O)[C@H](CCCNC(=N)N)NC(=O)[C@H](CCCNC(=N)N)NC(=O)[C@@H](N)CCCNC(=N)N)C(=O)N[C@@H](Cc1c[nH]c2ccccc12)C(=O)N[C@H](Cc1ccc2ccccc2c1)C(=O)N[C@H](Cc1ccc2ccccc2c1)C(=O)O [IFX-112-1] (H-RRRRW[d2Nal][d2Nal]-OH),
12.5,12.5,128,930,128,"NCCCC[C@@H]1NC(=O)[C@H](CCCCN)NC(=O)[C@H](CCCCN)NC(=O)[C@@H](Cc2ccc3ccccc3c2)NC(=O)[C@@H](Cc2ccc3ccccc3c2)NC(=O)[C@@H](Cc2c[nH]c3ccccc23)NC(=O)[C@H](CCCCN)NC(=O)[C@H](CCCCN)NC1=O [IFX-132, c[Lys-Lys-Lys-Lys-Lys-trp-naI-naI]] (cyclo(KKKKK[dW][d2Nal][d2Nal]))",

Structure (SMILES),MIC S. aureus ATCC 29213 [1] [µg/mL],MIC MRSA ATCC BAA-1556 [2] [µg/mL],MIC E. coli ATCC 25922 [4] [µg/mL],HC50 at 0.5 h [5] [µg/mL],MIC P. aeruginosa ATCC 27883 ([3]; ATCC 27883) [µg/mL],MIC P. aeruginosa ATCC 27883 ([3]; P. aeruginosa ATCC 27883) [µg/mL]
"N=C(N)NCCC[C@@H]1NC(=O)[C@H](CCCNC(=N)N)NC(=O)[C@H](CCCNC(=N)N)NC(=O)[C@H](Cc2ccc3ccccc3c2)NC(=O)[C@@H](Cc2ccc3ccccc3c2)NC(=O)[C@H](Cc2c[nH]c3ccccc23)NC(=O)[C@H](CCCNC(=N)N)NC1=O [IFX-103, c[Arg-Arg-Arg-Arg-Trp-naI-NaI]] (cyclo([2Nal]RRRRW[d2Nal]))",3.1,3.1,12.5,170,,12.5
"N=C(N)NCCC[C@@H]1NC(=O)[C@H](CCCNC(=N)N)NC(=O)[C@H](CCCNC(=N)N)NC(=O)[C@@H](Cc2ccc3ccccc3c2)NC(=O)[C@@H](Cc2ccc3ccccc3c2)NC(=O)[C@H](Cc2c[nH]c3ccccc23)NC(=O)[C@H](CCCNC(=N)N)NC1=O [IFX-112, c[Arg-Arg-Arg-Arg-Trp-naI-naI]] (cyclo(RRRRW[d2Nal][d2Nal]))",3.1,1.5,12.5,295,,12.5
"N=C(N)NCCC[C@@H]1NC(=O)[C@@H](CCCNC(=N)N)NC(=O)[C@H](CCCNC(=N)N)NC(=O)[C@@H](CCCNC(=N)N)NC(=O)[C@@H](Cc2ccc3ccccc3c2)NC(=O)[C@@H](Cc2ccc3ccccc3c2)NC(=O)[C@H](Cc2c[nH]c3ccccc23)NC1=O [IFX-110, c[arg-Arg-arg-Arg-Trp-naI-naI]] (cyclo([dR]R[dR]RW[d2Nal][d2Nal]))",3.1,1.5,12.5,225,,12.5
"N=C(N)NCCC[C@@H]1NC(=O)[C@H](Cc2ccc3ccccc3c2)NC(=O)[C@H](Cc2ccc3ccccc3c2)NC(=O)[C@H](Cc2c[nH]c3ccccc23)NC(=O)[C@H](CCCNC(=N)N)NC(=O)[C@@H](CCCNC(=N)N)NC(=O)[C@H](CCCNC(=N)N)NC1=O [IFX-106, c[Arg-Arg-arg-Arg-Trp-NaI-NaI]] (cyclo([2Nal][2Nal]RR[dR]RW))",1.5,1.5,25,175,,12.5
"N=C(N)NCCC[C@@H]1NC(=O)[C@H](Cc2ccc3ccccc3c2)NC(=O)[C@H](Cc2ccc3ccccc3c2)NC(=O)[C@H](Cc2c[nH]c3ccccc23)NC(=O)[C@@H](CCCNC(=N)N)NC(=O)[C@H](CCCNC(=N)N)NC(=O)[C@H](CCCNC(=N)N)NC1=O [IFX-105, c[Arg-Arg-Arg-arg-Trp-NaI-NaI]] (cyclo([2Nal][2Nal]RRR[dR]W))",3.1,3.1,12.5,130,,12.5
